Source: patent publication US5270316A, “Condensed purine derivatives” (Kyowa Hakko Kogyo Co., Ltd., priority 1989, dated 1993)
pIC50: −log10 of the molar value. Read-outs that look alike come from different tables or passages of the source.

How the values were obtained:
[1] = Acute toxicity, minimum lethal dose (oral, mice); type: in vivo; conditions: male dd-mice, mortality observed for seven days
Protocol: The compounds were orally administrated to male dd-mice weighing 20±1 g. Minimum lethal dose (MLD) was determined by observing the mortality for seven days after the administration.

[2] = Diuretic activity (oral, urine collected for 6 hours); type: in vivo, rat (Wistar male rats); conditions: Rattus norvegicus, rats; for response vs control in vivo at 25 mg/kg: 25 mg/kg oral; for response vs control in vivo at 6.25 mg/kg: 6.25 mg/kg oral
Protocol: Wistar male rats weighing 150 to 300 g were used after they were fasted for 18 hours. A test compound or saline (control) was orally administered to rats and urine was collected for 6 hours. The test was performed using 3 groups per the test compound, and each group consists of 3 animals. The urine was metered by a measuring cylinder and electrolytes (Na^+ and K^+) in the urine were assayed with a flame photometer (model […] manufactured by Hitachi Ltd.). Parameters in Table 3 are all expressed by relative value for control.

[3] = tested on: trachea; test: Passive Schultz-Dale reaction (bronchodilatory effects), relaxation of sensitized trachea strips; set-up: species or system guinea pig (Hartley male); conditions: Cavia porcellus; sensitized guinea pig trachea, EWA 1 μg/ml, 37° C.; read-out: Passive S-D reaction IC50 (concentration of 50% relaxation rate)
Protocol: Guinea pigs were passively sensitized as follows. […] After 24 hours, the guinea pigs were stunned and exsanguinated, and then trachea was excised. The zig-zag strips of the trachea were prepared by the method of Emmerson and Mackay [J. Pharm. […] After the contraction curves reached plateau the compounds were successively added in order to get cumulative concentration-relaxation curves.

[4] = tested on: Experimental asthma; test: Experimental asthma (collapse time after antigen aerosol); type: in vivo, guinea pig (Hartley male); conditions: 50 mg/kg oral, passively sensitized guinea pigs, 1.5% EWA aerosol; control 254 ± 18
Protocol: Guinea pigs were passively sensitized as follows. Hartley male guinea pigs weighing 350 to 500 g were intraperitoneally injected with 1 ml of rabbit anti-egg alubmin (EWA) serum prepared by the method of Koda et al. [Folia pharmacol., Japon, 66, 237 (1970)]. The animals were treated with intraperitoneal injection of diphenhydramine (20 mg/kg) and propranolol (5 mg/kg), 30 minutes before administration of test compounds. 17 hours after the sensitization, the test compounds (50 mg/kg) or saline (control) were orally administered to sensitized animals. After one hour from the administration of the test compounds, the guinea pigs were placed in plastic observation box and were exposed to an aerosal antigen of 1.5% EWA.
The time until the onset of respiratory distress-like symptom [collapse time (second)] was measured as a result of experimental asthma.

[5] = tested on: Glycerol-induced Renal Deficient Model; test: Renal protecting activity (glycerol-induced renal deficient model): serum creatinine and urea nitrogen; type: in vivo, rat (Wistar male rats); conditions: 10 mg/kg intraperitoneal, rats, 24 hours after glycerol injection; own control beside each compound; normal control 0.50
Protocol: It is well known that subcutaneous or intramuscular administration of glycerol to rat induce acute renal insufficiency characterized by renal tubular disturbance [Can J. Physiol.
Wistar male rats (fasted both food and water for 18 hours) were used. A test compound or saline (control) was intraperitoneally administered (dose: 10 mg/kg) to rats. After 30 minutes rats were anesthesized with ether and the back skin was picked up and 0.8 ml/100 g of 50% glycerol was subcutaneously administered. 24 hours after the glycerol injection, the rats were anesthesized with ether and 5 ml of the blood was collected from the descending aorta. To obtain the serum, after allowing it to stand for 30 minutes or longer, the blood sample was centrifuged at 3000 rpm for 10 minutes. Creatinine in the serum sample was determined using autoanalyzer (AU510, Olympus) or clinical analysis kit of creatinine (Creatinine Test Wako; by Wako Pure Chemical Ind., Japan). Urea nitrogen in the serum was determined using autoanalyzer (AU510; made by Olympus Optical Co., Ltd, Japan) or clinical analysis kit of urea nitrogen (Urea nitrogen test wako; by Wako Pure Chemical Ind., Japan).

[6] = tested on: Platelet Activating Factor (PAF)-induced mortality; test: Inhibition of Platelet Activating Factor (PAF)-induced mortality; type: in vivo, mouse (male dd mice); conditions: Mus musculus, 2 h, oral, mice, one hour before PAF 40 μg/kg i.v., p<0.05 vs control, read-out: PAF-induced mortality inhibition, minimum effective dose (MED)
Protocol: The experiment was performed by a minor modification of method of Carlson et al. [Agents and Actions, 21, 379 (1987)]. Groups each consisting of 10 male dd mice (weighing 28 to 32 g) were used, and 100 mg/kg of test compound or a saline (control) was orally administrated. One hour after the administration of test compound, 40 μg/kg of PAF (manufactured by Avanti Polar Lipids Co., Ltd.) was intravenously administered. Two hours after PAF injection, the mortality rate of the animals was observed.

[7] = J. Med. Chem., 23, 1188 (1980); cited from earlier work
[8] = relative value for control (1.00), read-out: Na+/K+
[9] = relative value for control, read-out: Excretion of K+
[10] = relative value for control, read-out: Excretion of Na+
[11] = relative value for control, read-out: Urine volume

Row | SMILES | Minimum lethal dose (MLD) [1] [mg/kg] | pIC50 [3] | Experimental asthma, collapse time [4] [s] | minimal effective dose [6] [mg/kg] | further results
1 | CCCN1C(=O)N2C(=NCC2c2ccccc2)c2c1ncn2C (centres unmarked) [Compound 5, 1-Methyl-7-phenyl-4-n-propyl-1,4,7,8-tetrahydro-5H-imidazo[2,1-i]purin-5-one] | > 300 | 4.49 | 542 ± 36 |  | response vs control in vivo at 25 mg/kg [2, 8]: 167%; response vs control in vivo at 25 mg/kg [2, 9]: 77%; response vs control in vivo at 25 mg/kg [2, 10]: 197%; response vs control in vivo at 25 mg/kg [2, 11]: 165%
2 | CCCN1C(=O)N2CCN=C2c2[nH]cnc21 [Compound 2, 4-n-Propyl-1,4,7,8-tetrahydro-5H-imidazo[2,1-i]purin-5-one] |  | 4.68 | 552 ± 20 | 100 | Creatinine in serum, glycerol treated, test compound administrated [5]: 1.63 ± 0.19 mg/dL
3 | O=C1N2CCN=C2c2[nH]cnc2N1Cc1ccc(Cl)cc1 [formula (A)] |  |  |  |  | bronchodilatory effect [7]: slight bronchodilatory effect
4 | Cn1cnc2c1C1=NCCN1C(=O)N2Cc1ccccc1 [10 Sa] | > 300 | 5.01 | 357 ± 65 |  | 
5 | Cn1c(=O)c2[nH]cnc2n(C)c1=O [Theophylline, reference compound] |  | 4.64 | 414 ± 47 | 100 | 
6 | CCCN1C(=O)N2CC(C(C)C)N=C2c2[nH]c(C3CCCC3)nc21 (centres unmarked) [13 Sa] |  |  | 374 ± 76 |  | response vs control in vivo at 6.25 mg/kg [2, 8]: 163%; response vs control in vivo at 6.25 mg/kg [2, 9]: 18%; response vs control in vivo at 6.25 mg/kg [2, 10]: 92%; response vs control in vivo at 6.25 mg/kg [2, 11]: 140%
